Source: article PMC11868331, “A Phase 1b study of the OxPhos inhibitor ME-344 with bevacizumab in refractory metastatic colorectal cancer” (Investigational New Drugs, 2024)

How the values were obtained:
solid tumors = system: solid tumors; design: method as in PMID 25411085; conditions: cited from earlier work
[1] = system: patients with ovarian and small cell lung cancer; design: method as in PMID 28283779; conditions: ME-344 at 10 mg/kg in combination with topotecan; cited from earlier work
[2] = system: PyMT breast cancer and Lewis lung carcinoma models; design: method as in PMID 27292634; conditions: in combination with TKIs; cited from earlier work
[3] = system: early HER2-negative breast cancer; design: method as in PMID 31597662; conditions: mitochondrial on-target effect; cited from earlier work
[4] = ME-344 plasma pharmacokinetics, non-compartmental analysis; format: in vivo, human; conditions: for Cmax, Mean (%CV): ME-344 10 mg/kg 60-minute infusion
Description: Serial blood samples for ME-344 pharmacokinetic analyses were collected 5 min after the end of ME-344 infusion and at 1, 2, 3, 6 and 24 h after the completion of infusion on days 1 and 15 of cycle 1, and ME-344 plasma concentrations were determined using validated analytical methods. ME-344 pharmacokinetic parameters were estimated using actual sampling times by non-compartmental analysis.

[5] = system: panel of human cancer cells; conditions: cells representative of most major organ systems; preclinical screening studies; cited from earlier work

## Cc1c(O)ccc2c1OC[C@@H](c1ccc(O)cc1)[C@H]2c1ccc(O)cc1 [ME-344]
Solid tumors; at higher doses than 10 mg/kg
  dose limiting toxicity: peripheral neuropathy
Solid tumors; intravenously (IV) once weekly for 3 weeks in a 28-day cycle
  recommended phase 2 dose: 10 mg/kg
[1]
  tolerability: well tolerated
[2]
  tumor control: synergistic tumor control
[3]
  succinate dehydrogenase and HIF1α staining: decrease
[4]; Cycle 1 Day 1 (n = 17)
  AUCinf, Mean (%CV): 23.0 (34%) µg×h/mL
  AUClast, Mean (%CV): 22.6 (34%) µg×h/mL
  Tmax, median (range): 1.08 [1.03 – 1.33] hours
  Cmax, Mean (%CV): 12.60 (42%) µg/mL
[4]; Cycle 1 Day 15 (n = 15)
  AUCinf, Mean (%CV): 23.7 (38%) ^A µg×h/mL
  AUClast, Mean (%CV): 22.4 (35%) ^A µg×h/mL
  Half-life (terminal phase t1/2), Mean (%CV): 5.1 (38%) ^A h
[4]; Cycle 1 Day 15 (n = 18)
  Tmax, median (range): 1.17 [1.03 – 2.23] hours
  Cmax, Mean (%CV): 11.83 (47%) µg/mL
[4]; day 15
  pre-dose plasma concentrations: negligible
[5]
  antiproliferative activity: broad antiproliferative activity
